Reference: patent publication US9428536B2, “Immunostimulatory G, U-containing oligoribonucleotides” (Zoetis Belgium SA, priority 2002, dated 2016)

Assays:
[1] = tested on: human PBMC; assay: Human PBMC IL-12 p40 secretion, ELISA; type: cell-based; conditions: for IL-12 p40 response of human PBMC (in words): Example 1, FIG. 1, 16 hours, RNA 50 μg/ml with and without DOTAP, R-848 2 μg/ml, LPS 1 μg/ml, Pam3Cys 5 μg/ml, poly IC 50 μg/ml; for effect of DOTAP on the amount of IL-12 p40 secreted: Example 4, FIG. 5, presence versus absence of DOTAP, 16 hour incubation
Protocol: Human peripheral blood mononuclear cells (PBMCs) were isolated from healthy donors, plated at 3×10^5 cells/well, stimulated in vitro with various test and control immunostimulatory agents for 16 hours, and then analyzed by enzyme-linked immunosorbent assay (ELISA) using matched antibody pairs from BD-Pharmingen for secreted cytokines IL-12 p40 and TNF-α, performed according to the manufacturer's protocol. Also included were certain negative controls, including medium alone and DOTAP (10 μg/200 μl culture well; “Liposomes”) alone. The control immunostimulatory agents included the imidazoquinolone R-848 (2 μg/ml), lipopolysaccharide (LPS; 1 μg/ml), Pam3Cys (5 μg/ml), poly IC (50 μg/ml), and CpG DNA (50 μg/ml). These are reported ligands for TLR7, TLR4, TLR2, TLR3, and TLR9, respectively. Test immunostimulatory agents included the following RNA molecules, each at 50 μg/ml, with and without DOTAP (10 μg total “with Liposomes” and “without Liposomes”, respectively): GUGUUUAC alone; GUAGGCAC alone; GUGUUUAC in combination with GUAGGCAC; GUAGGA; GAAGGCAC; CUAGGCAC; CUCGGCAC; and CCCCCCCC. These RNA oligonucleotides each contained a phosphorothioate linkage between the penultimate and 3′ terminal nucleoside.
The experiments described in the preceding example were repeated with varied concentrations of RNA oligonucleotides in order to assess the dose-response behavior of human PBMCs to G,U-containing RNA oligonucleotides of the invention. A total of 10, 3 or 1 μg RNA was added to 10 μg DOTAP and then added to the 200 μl culture wells. After 16 hours IL-12 p40 and TNF-α ELISAs were performed as described in Example 1. […]
RNA oligomers GUGUGUGU, GUGUGUG, GUGUGU, GUGUG, GUGU, GUG, and GU, with and without DOTAP, were added over a range of concentrations to overnight cultures of human PBMC. Culture supernatants were harvested, and human TNF-α, IL-12 p40, and IFN-α were measured by ELISA using matched antibody pairs from BD-Pharmingen according to the manufacturer's protocol. […]

[2] = tested on: wild type murine macrophages; assay: Wild type murine macrophages in the presence of IFN-γ, IL-12 p40 ELISA; type: cell-based, mouse; conditions: FIG. 6 Panel A, 12 hours, RNA with DOTAP
Protocol: The following murine cells were isolated and incubated with various RNAs and other known TLR ligands in order to assess species-, cell type-, and signaling pathway-specificity: wild type macrophages in the presence of IFN-γ; MyD88-deficient macrophages in the presence of IFN-γ; J774 (mouse macrophage cell line); and RAW 264.7 (mouse macrophage cell line, e.g., ATCC TIB-71). Murine bone macrophages were generated from wild type or MyD88-deficient C57BL/6 mice by culturing bone marrow cells with 50 ng/ml M-CSF for 5 days. Cells were seeded at 25,000 cells/well and treated with 20 ng/ml IFN-γ for 16 hours. The murine macrophage cell lines RAW and J774 were seeded at 10,000 cells/well.
The following test and control agents were examined: R-848 (2 μg/ml), ODN 1668 (CpG DNA; 5′-[…]-3′; SEQ ID NO:7); LPS (1 μg/ml); poly IC (50 μg/ml); Pam3Cys (5 μg/ml); Ionomycin/TPA; the following RNA molecules, each with (“+Lipo”) and without DOTAP (10 μg/200 μl culture well): GUGUUUAC alone (RNA1); GUAGGCAC alone (RNA2); GUGUUUAC in combination with GUAGGCAC (RNA1/2); […] (RNA6; SEQ ID NO:8); […] (RNA9; SEQ ID NO:9); and the following DNA molecules, corresponding to RNA1, RNA2, and RNA1/2: GTGTTTAC alone (DNA1); GTAGGCAC alone (DNA2); and GTGTTTAC in combination with GTAGGCAC (DNA1/2). These RNA and DNA oligonucleotides each contained a phosphorothioate linkage between the penultimate and 3′ terminal nucleoside. RNA6 and RNA9 each contained in addition a phosphorothioate linkage between the penultimate and 5′ terminal nucleoside. RNA6 corresponds to a ribosomal RNA stem loop derived from Listeria monocytogenes. RNA9 corresponds to a stem loop derived from human immunodeficiency virus (HIV, an RNA retrovirus). The cells were cultured for 12 hours and supernatants were harvested. Murine IL-12 p40, IL-6, and TNF-α were measured by ELISA using matched antibody pairs from BD-Pharmingen according to the manufacturer's protocol.

Compound | IL-12 p40 response of human PBMC (in words) [1] | effect of DOTAP on the amount of IL-12 p40 secreted [1] | IL-12 p40 secretion by wild type murine macrophages [2]
CCCCCCCCCCCCCCCC(=O)N[C@@H](CSC[C@@H](COC(=O)CCCCCCCCCCCCCCC)OC(=O)CCCCCCCCCCCCCCC)C(=O)O [Pam3Cys, reference compound] | responsive | about the same immunostimultory effect | significant amounts
lipopolysaccharide [LPS, reference compound] | responsive | reduced immunostimultory effect | significant amounts
poly IC [reference compound] | responsive | reduced immunostimultory effect | significant amounts
